By IC50 is commonly meant the concentration that inhibits the measured activity by half.

T1 sequence (Q05901 25-458 V273S): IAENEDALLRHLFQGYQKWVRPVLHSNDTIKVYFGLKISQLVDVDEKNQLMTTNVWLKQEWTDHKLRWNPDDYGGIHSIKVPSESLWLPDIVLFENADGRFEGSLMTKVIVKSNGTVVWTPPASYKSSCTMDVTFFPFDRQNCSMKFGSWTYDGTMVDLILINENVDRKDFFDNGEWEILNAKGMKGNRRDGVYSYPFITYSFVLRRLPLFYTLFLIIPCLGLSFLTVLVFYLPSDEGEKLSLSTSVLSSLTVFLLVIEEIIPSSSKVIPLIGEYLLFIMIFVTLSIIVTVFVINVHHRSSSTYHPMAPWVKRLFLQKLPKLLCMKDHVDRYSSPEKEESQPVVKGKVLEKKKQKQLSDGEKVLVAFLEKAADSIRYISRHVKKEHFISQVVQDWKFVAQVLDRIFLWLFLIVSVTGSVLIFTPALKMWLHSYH
T1 sequence (P17787 26-502, stated change not applied, further chain): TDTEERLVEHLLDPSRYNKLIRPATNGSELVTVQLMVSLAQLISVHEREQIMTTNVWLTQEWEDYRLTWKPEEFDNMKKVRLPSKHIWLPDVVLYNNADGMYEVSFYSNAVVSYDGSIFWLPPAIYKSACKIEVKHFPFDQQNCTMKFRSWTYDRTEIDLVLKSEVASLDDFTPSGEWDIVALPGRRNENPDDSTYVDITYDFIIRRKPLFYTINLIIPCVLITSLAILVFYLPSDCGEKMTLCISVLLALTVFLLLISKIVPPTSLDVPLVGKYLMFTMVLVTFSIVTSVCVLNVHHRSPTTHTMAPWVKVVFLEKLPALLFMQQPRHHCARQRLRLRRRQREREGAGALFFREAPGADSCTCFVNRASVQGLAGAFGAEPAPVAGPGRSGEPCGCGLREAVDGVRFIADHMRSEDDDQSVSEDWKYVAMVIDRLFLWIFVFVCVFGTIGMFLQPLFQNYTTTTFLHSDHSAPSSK
T1 sequence (Q15825+P32297 fused with the stated changes): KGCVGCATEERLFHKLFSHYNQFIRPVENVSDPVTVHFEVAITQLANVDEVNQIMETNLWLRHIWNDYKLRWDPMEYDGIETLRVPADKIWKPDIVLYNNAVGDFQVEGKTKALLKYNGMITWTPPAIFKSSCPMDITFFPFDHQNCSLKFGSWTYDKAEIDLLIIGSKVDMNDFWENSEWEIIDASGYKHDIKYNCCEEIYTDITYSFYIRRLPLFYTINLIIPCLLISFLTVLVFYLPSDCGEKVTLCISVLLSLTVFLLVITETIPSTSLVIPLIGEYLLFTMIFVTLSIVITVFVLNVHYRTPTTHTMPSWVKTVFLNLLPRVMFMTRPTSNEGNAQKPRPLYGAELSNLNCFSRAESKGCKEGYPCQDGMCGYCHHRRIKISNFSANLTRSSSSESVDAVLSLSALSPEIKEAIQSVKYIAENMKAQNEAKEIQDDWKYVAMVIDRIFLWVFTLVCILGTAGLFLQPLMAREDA

The first assay addresses T1, human nAChRα6-α3 chimera, in addition to β2 and β3^V273S subunits (Homo sapiens, UniProt P32297+Q15825).
T1 construct: expressed in transfected cells
The assay is described as follows: fluorescence-based calcium assay: inhibition of nicotine stimulated nAChRα6 activity (FLIPR). The settings on record: HEK cell line stably expressing the receptor; 10 min pre-incubation, nicotine EC80; 10-point curve, duplicate wells; read-out: IC50. The essentials: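 HEK cells stably expressing the human α6-α3 chimera with β2 and β3^V273S were loaded with calcium dye at 30° C. Compounds were pre-incubated for 10 min before nicotine at EC80, and the fluorescence change was read on a FLIPR. Ten-point half-log concentration-response, duplicate wells.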
In the case of `Cc1nc(NC2CC3CCC(C2)N3C)ncc1-c1ccc(F)cc1F` (stereo not shown) [Example 12, N-(5-(2,4-difluorophenyl)-4-methyl-pyrimidin-2-yl)-8-methyl-8-azabicyclo[3.2.1]octan-3-amine], the IC50 amounted to 0.108 µM.
Still for that read-out and setting: the value for `CN1CCCC1CNc1ncc(-c2ccc(F)cc2F)c(C#N)n1` (stereo not shown) [Example 19, 5-(2,4-difluorophenyl)-2-(((1-methylpyrrolidin-2-yl)methyl)amino) pyrimidine-4-carbonitrile] was 0.216 µM; that for `COc1ccc(-c2nnc(NCC3CCCN3C)nc2C)c(F)c1` (single isomer, unassigned) [Example 18b, 6-(2-fluoro-4-methoxyphenyl)-5-methyl-N-((1-methylpyrrolidin-2-yl)methyl)-1,2,4-triazin-3-amine] was 0.442 µM; that for `Cc1nc(NC(=O)[C@H]2CCCN2C)ncc1-c1ccc(C(F)(F)F)cc1F` [Example 139, (R)—N-(5-(2-fluoro-4-(trifluoromethyl)phenyl)-4-methyl-pyrimidin-2-yl)-1-methylpyrrolidine-2-carboxamide] was 0.086 µM.
The same measure, in the same setting: the value for `COc1ccc(-c2nnc(NCC3CCCCN3C)nc2C)c(F)c1` (single isomer, unassigned) [Example 57b, 6-(2-fluoro-4-methoxyphenyl)-5-methyl-N-((1-methylpiperidin-2-yl)methyl)-1,2,4-triazin-3-amine] was 0.144 µM; that for `COc1ccc(-c2cnc(NC3CCC(N(C)C)C3)nc2C(F)(F)F)c(F)c1` (stereo not shown) [Example 43, N^1-(5-(2-fluoro-4-methoxyphenyl)-4-(trifluoromethyl)pyrimidin-2-yl)-N^3,N^3-dimethylcyclopentane-1,3-diamine] was 0.178 µM; that for `O=C(O)/C=C/C(=O)O.[2H]C([2H])([2H])N1CCC[C@@H]1CNc1ncc(-c2ccc(C(F)(F)F)cc2F)c(C)n1` [Example 117, (R)-5-(2-fluoro-4-(trifluoromethyl)phenyl)-4-methyl-N-((1-(trideuteriomethyl)pyrrolidin-2-yl)methyl)pyrimidin-2-amine] was 0.025 µM.
Same read-out and setting: the figure for `COc1ccc(-c2nnc(NC3CCCN(C)C3)nc2C)c(F)c1` (single isomer, unassigned) [Example 69a, 6-(2-fluoro-4-methoxyphenyl)-5-methyl-N-(1-methylpiperidin-3-yl)-1,2,4-triazin-3-amine] is 0.436 µM; for `COc1ccc(-c2cnc(NC3CCN(C(C)C)CC3)nc2C)c(F)c1` [Example 41, 5-(2-fluoro-4-methoxyphenyl)-N-(1-isopropylpiperidin-4-yl)-4-methyl-pyrimidin-2-amine] it is 0.081 µM; for `COc1ccc(-c2cnc(NCC3CCN(C)C3)nc2C2CC2)c(F)c1` (stereo not shown) [Example 37, 4-cyclopropyl-5-(2-fluoro-4-methoxyphenyl)-N-((1-methylpyrrolidin-3-yl)methyl)pyrimidin-2-amine] it is 0.103 µM.
Regarding `Cc1nc(NC2CCCC(N(C)C)C2)ncc1-c1ccc(F)cc1F` (single isomer, unassigned) [Example 55a, N^1-(5-(2,4-difluorophenyl)-4-methyl-pyrimidin-2-yl)-N^3,N^3-dimethylcyclohexane-1,3-diamine], the half-inhibitory concentration (IC50) was 0.098 µM.
The same measure, in the same setting: the figure for `Cc1nc(NCC2CCN(C)C2)ncc1-c1ccc(F)cc1F` (stereo not shown) [Example 13, 5-(2,4-difluorophenyl)-4-methyl-N-((1-methylpyrrolidin-3-yl)methyl) pyrimidin-2-amine] is 0.05 µM; for `Cc1nc(NC(C)[C@H]2CCCN2C)ncc1-c1ccc(C(F)(F)F)cc1F` (single isomer, unassigned) [Example 131a, 5-(2-fluoro-4-(trifluoromethyl)phenyl)-4-methyl-N-((1*R)-1-((2R)-1-methylpyrrolidin-2-yl)ethyl)pyrimidin-2-amine] it is 0.172 µM; for `COc1ccc(F)c(-c2cnc(NCC3CCCCN3C)nc2C)c1` (stereo not shown) [Example 33, 5-(2-fluoro-5-methoxyphenyl)-4-methyl-N-((1-methylpiperidin-2-yl)methyl) pyrimidin-2-amine] it is 0.045 µM.
Still for that read-out and setting: the value for `Cc1nc(NC2CC3(CNC3)C2)ncc1-c1ccc(C(F)(F)F)cc1F` [Example 122, N-(5-(2-fluoro-4-(trifluoromethyl)phenyl)-4-methyl-pyrimidin-2-yl)-2-azaspiro[3.3]heptan-6-amine] was 0.039 µM.
The same measure, in the same setting: the value for `Cc1nc(N[C@H]2CNC[C@@H]2F)ncc1-c1ccc(C(F)(F)F)cc1F` (relative stereo) [Example 114, N-((trans)-4-fluoropyrrolidin-3-yl)-5-(2-fluoro-4-(trifluoromethyl)phenyl)-4-methyl-pyrimidin-2-amine] was 0.142 µM; that for `Cc1nc(N[C@@H]2CNC[C@H]2O)ncc1-c1ccc(C(F)(F)F)cc1F` [Example 115, (3R,4R)-4-((5-(2-fluoro-4-(trifluoromethyl)phenyl)-4-methyl-pyrimidin-2-yl)amino)pyrrolidin-3-ol] was 0.121 µM; that for `Cc1nc(NCC2NCCC2(F)F)ncc1-c1ccc(F)cc1F` (single isomer, unassigned) [Example 83b, 5-(2,4-difluorophenyl)-N-((3,3-difluoropyrrolidin-2-yl)methyl)-4-methyl-pyrimidin-2-amine] was 0.456 µM.
`Cc1nc(NCCC2CCCN2C)ncc1-c1ccc(C(F)(F)F)cc1F` (stereo not shown) [Example 106, 5-(2-fluoro-4-(trifluoromethyl)phenyl)-4-methyl-N-(2-(1-methylpyrrolidin-2-yl)ethyl)pyrimidin-2-amine]: the half-maximal inhibitory concentration (IC50) was found to be 0.054 µM.
Same read-out and setting: the value for `COc1ccc(-c2nnc(NCC3CCCN3C)nc2C)c(F)c1` (single isomer, unassigned) [Example 18a, 6-(2-fluoro-4-methoxyphenyl)-5-methyl-N-((1-methylpyrrolidin-2-yl)methyl)-1,2,4-triazin-3-amine] was 0.331 µM; that for `COc1ccc(-c2cnc(NCC3CCCN(C(C)C)C3)nc2C)c(F)c1` (stereo not shown) [Example 49, 5-(2-fluoro-4-methoxyphenyl)-N-((1-isopropylpiperidin-3-yl)methyl)-4-methyl-pyrimidin-2-amine] was 0.069 µM; that for `Cc1nc(NC2CCC(S(C)(=O)=O)C2)ncc1-c1ccc(F)cc1F` (stereo not shown) [Example 52, 5-(2,4-difluorophenyl)-4-methyl-N-(3-(methylsulfonyl)cyclopentyl) pyrimidin-2-amine] was 1.53 µM.
Still for that read-out and setting: the figure for `COc1ccc(-c2cnc(NCCC3CCCN3C)nc2C)c(F)c1` (stereo not shown) [Example 16, 5-(2-fluoro-4-methoxyphenyl)-4-methyl-N-(2-(1-methylpyrrolidin-2-yl)ethyl)pyrimidin-2-amine] is 0.075 µM.
On the same count and under the same terms, the value for `Cc1nc(NCC2CCC(C)N2C)ncc1-c1ccc(C(F)(F)F)cc1F` (single isomer, unassigned) [Example 138b, N-(((2*S,5*S)-1,5-dimethylpyrrolidin-2-yl)methyl)-5-(2-fluoro-4-(trifluoromethyl)phenyl)-4-methyl-pyrimidin-2-amine] was 0.085 µM; that for `COc1ccc(-c2cnc(NCCC3CCCN3C)nc2C#N)c(F)c1` (stereo not shown) [Example 27, 5-(2-fluoro-4-methoxyphenyl)-2-((2-(1-methylpyrrolidin-2-yl)ethyl)amino) pyrimidine-4-carbonitrile] was 0.056 µM.
Take `Cc1nc(NCC2CCC(C)N2C)ncc1-c1ccc(C(F)(F)F)cc1F` (single isomer, unassigned) [Example 138c, N-(((2*R,5*S)-1,5-dimethylpyrrolidin-2-yl)methyl)-5-(2-fluoro-4-(trifluoromethyl)phenyl)-4-methyl-pyrimidin-2-amine]: the IC50 is 0.069 µM.
Same read-out and setting: the value for `[2H]C([2H])([2H])N1CCC[C@@H]1CNc1ncc(-c2ccc(F)cc2F)c(C)n1` [Example 90b, (R)-5-(2,4-difluorophenyl)-4-methyl-N-((1-(trideuteriomethyl)pyrrolidin-2-yl)methyl)pyrimidin-2-amine] was 0.186 µM.
On the same count and under the same terms, the value for `COc1ccc(-c2nnc(NCC3CCCN3C)nc2C)c(F)c1` (single isomer, unassigned) [Example 54a, 6-(2-fluoro-4-methoxyphenyl)-5-methyl-N-((1-methylpyrrolidin-2-yl)methyl)-1,2,4-triazin-3-amine] was 0.331 µM; that for `COc1ccc(-c2c(C)nc(NCC3CCCN3C)nc2OC)c(F)c1` (stereo not shown) [Example 75, 5-(2-fluoro-4-methoxyphenyl)-4-methoxy-6-methyl-N-((1-methylpyrrolidin-2-yl)methyl)pyrimidin-2-amine] was 0.094 µM.
On the same count and under the same terms, the value for `Cc1nc(NC[C@H]2CCCNC2)ncc1-c1ccc(C(F)(F)F)cc1F` [Example 127, (S)-5-(2-fluoro-4-(trifluoromethyl)phenyl)-4-methyl-N-(piperidin-3-ylmethyl)pyrimidin-2-amine] was 0.119 µM; that for `Cc1nc(NCC2CCC(C)N2C)ncc1-c1ccc(C(F)(F)F)cc1F` (single isomer, unassigned) [Example 138a, N-(((2*R,5*R)-1,5-dimethylpyrrolidin-2-yl)methyl)-5-(2-fluoro-4-(trifluoromethyl)phenyl)-4-methyl-pyrimidin-2-amine] was 0.207 µM.
On to `Cc1nc(NCC2N(C)CCC2(F)F)ncc1-c1ccc(F)cc1F` (single isomer, unassigned) [Example 84a, N-((3,3-difluoro-1-methylpyrrolidin-2-yl)methyl)-5-(2,4-difluorophenyl)-4-methyl-pyrimidin-2-amine], for which the 50% inhibitory concentration (IC50) was 1.53 µM.

Still in this assay, the particulars now being: IC50 (μM), HEK cell line stably expressing the receptor; 10 min pre-incubation, nicotine EC80; 10-point curve, duplicate wells.
Turning to `Cc1nc(NC[C@H]2CCCCN2)ncc1-c1ccc(C(F)(F)F)cc1F` [Example 104a, (R)-5-(2-fluoro-4-(trifluoromethyl)phenyl)-4-methyl-N-(2-piperidinylmethyl)pyrimidin-2-amine], the IC50 was found to be 0.104 µM.
The same measure, in the same setting: the figure for `Cc1nc(NC[C@]2(C)CCCN2C)ncc1-c1ccc(C(F)(F)F)cc1F` [Example 136, (S)—N-((1,2-dimethylpyrrolidin-2-yl)methyl)-5-(2-fluoro-4-(trifluoromethyl)phenyl)-4-methyl-pyrimidin-2-amine] is 0.096 µM.

The values are drawn from patent US20240059677A1, “SUBSTITUTED PYRIMIDINE DERIVATIVES AS NICOTINIC ACETYLCHOLINESTERASE RECEPTOR ALPHA 6 MODULATOR” (priority 2020, published 2024).
